pIC50: −log10 of the molar value. Where a name gives a salt, the structure may show the parent alone.
Tests used:
[1] = biological target: catalytic domain (JH1, amino acids 826-1132) of human JAK2 (Homo sapiens (Human), UniProt O60674); test: JAK2 LanthaScreen JH1 Binding Assay; details: JAK2 JH1 1.5 nM, 50 nM tracer, 2 hours at 25° C.; read-out: JH1BIND IC50
Procedure: Example A. JAK2 LanthaScreen JH1 Binding Assay
(§1) JAK2 JH1 binding assay utilizes catalytic domain (JH1, amino acids 826-1132) of human JAK2 expressed as N-terminal FLAG-tagged, biotinylated protein in a baculovirus expression system (Carna Biosciences, Product #08-445-20N). The assay was conducted in black 384-well polystyrene plates in a final reaction volume of 20 μL. JAK2 JH1 (1.5 nM) was incubated with compounds (100 nL serially diluted in DMSO) in the presence of 50 nM fluorescent JAK2-JH1 tracer and 0.5 nM Streptavidin-Tb cryptate (Cisbio Part #610SATLB) in assay buffer (50 mM Tris, pH=7.5, 10 mM MgCl2, 0.01% Brij-35, 0.1% BSA, 1 mM EGTA, 5% Glycerol and 5 mM DTT). Non-specific binding was accessed in the presence of 2 mM ATP. After incubation for 2 hours at 25° C., LanthaScreen signals were read on a PHERAstar FS plate reader (BMG LABTECH). Data was analyzed with IDBS XLfit and GraphPad Prism 5.0 software using a four parameter dose response curve to determine IC50 for each compound.

[2] = biological target: pseudo-kinase domain (JH2) of human Wild Type JAK2 (Homo sapiens (Human), UniProt O60674, F794H/W659A/W777A); test: JAK2 LanthaScreen JH2-WT Binding Assay; details: JAK2 JH2-WT 0.145 nM, 50 nM tracer, 1 hour at 25° C.; read-out: JH2BIND_WT IC50
Procedure: Example B. JAK2 LanthaScreen JH2-WT Binding Assay
as §1, with “The” for “JAK2 JH1 binding assay utilizes catalytic domain (JH1, amino acids 826-1132) of human JAK2 expressed as N-terminal FLAG-tagged, biotinylated protein in a baculovirus expression system (Carna Biosciences, Product #08-445-20N). The”, “JH2-WT (0.145” for “JH1 (1.5”, “Fluorescent JAK2-JH2 Tracer (MedChem Express Catalog #HY-102055)” for “fluorescent JAK2-JH1 tracer”, “0.25” for “0.5”, “1 hour” for “2 hours”

[3] = biological target: pseudo-kinase domain (JH2) of human V617F mutant JAK2 (Homo sapiens (Human), UniProt O60674, F794H/V617F/W659A/W777A); test: JAK2 LanthaScreen JH2-V617F Binding Assay; details: JAK2 JH2-V617F 0.26 nM, 50 nM tracer, 1 hour at 25° C.; read-out: JH2BINDING_V617F IC50
Procedure: The assay was conducted in black 384-well polystyrene plates in a final reaction volume of 20 μL. […] Non-specific binding was accessed in the presence of 2 mM ATP. After incubation for 1 hour at 25° C., LanthaScreen signals were read on a PHERAstar FS plate reader (BMG LABTECH). Data was analyzed with IDBS XLfit and GraphPad Prism 5.0 software using a four parameter dose response curve to determine IC50 for each compound.

[4] = biological target: catalytic domain (JH1, amino acids 808-1132) of human JAK2 (Homo sapiens (Human), UniProt O60674); test: JAK2 HTRF Enzyme Activity Assay; format: biochemical; details: ATP 30 μM, 60 minutes at 25° C.; read-out: ENZ 30UMATP IC50
Procedure: Example D. JAK2 HTRF Enzyme Activity Assay
JAK2 enzyme activity assays utilize catalytic domain (JH1, amino acids 808-1132) of human JAK2 expressed as N-terminal His-tagged protein in a baculovirus expression system (BPS Bioscience, Catalog #40450). The assays was conducted in black 384-well polystyrene plates in a final reaction volume of 20 μL. JAK2 (0.015 nM) was incubated with compounds (100 nL serially diluted in DMSO) in the presence of ATP (30 μM or 1 mM) and 500 nM Biotin-labeled […] (SEQ ID NO.: 1) peptide (BioSource International, custom synthesis) in assay buffer (50 mM Tris, pH=7.5, 10 mM MgCl2, 0.01% Brij-35, 0.1% BSA, 1 mM EGTA, 5% Glycerol and 5 mM DTT) for 60 minutes at 25° C. The reactions were stopped by the addition of 10 μL of detection buffer (50 mM Tris, pH 7.8, 0.5 mg/mL BSA, 150 mM NaCl), supplemented with EDTA, LANCE Eu-W1024 anti-phosphotyrosine (PY20), (PerkinElmer, Catalog #AD0067) and Streptavidin SureLight APC (PerkinElmer Catalog #CR130-100), for a final concentration of 15 mM, 1.5 nM and 75 nM, respectively. HTRF signals were read after 30 minutes incubation at room temperature on a PHERAstar FS plate reader (BMG LABTECH). Data was analyzed with IDBS XLfit and GraphPad Prism 5.0 software using a four parameter dose response curve to determine IC50 for each compound.

Sequence of catalytic domain (JH1, amino acids 826-1132) of human JAK2 (O60674 826-1132): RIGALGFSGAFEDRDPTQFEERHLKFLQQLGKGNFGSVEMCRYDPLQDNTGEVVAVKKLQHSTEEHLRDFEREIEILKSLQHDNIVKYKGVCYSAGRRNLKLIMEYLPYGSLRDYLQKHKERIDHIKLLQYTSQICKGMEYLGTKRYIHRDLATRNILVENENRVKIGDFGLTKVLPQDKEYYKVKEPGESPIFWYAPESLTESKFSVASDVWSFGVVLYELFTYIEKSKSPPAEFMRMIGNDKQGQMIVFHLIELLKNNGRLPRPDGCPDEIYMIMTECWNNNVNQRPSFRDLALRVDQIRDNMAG
Sequence of pseudo-kinase domain (JH2) of human Wild Type JAK2 (O60674 536-812 W659A/W777A/F794H): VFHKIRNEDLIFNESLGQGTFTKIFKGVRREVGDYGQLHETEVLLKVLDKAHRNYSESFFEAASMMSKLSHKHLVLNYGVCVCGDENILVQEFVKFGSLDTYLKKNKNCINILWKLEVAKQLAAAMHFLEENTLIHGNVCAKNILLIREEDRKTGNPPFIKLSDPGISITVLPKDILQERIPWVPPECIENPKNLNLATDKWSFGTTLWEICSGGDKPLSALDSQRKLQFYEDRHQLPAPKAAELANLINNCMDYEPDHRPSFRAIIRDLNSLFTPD
Sequence of catalytic domain (JH1, amino acids 808-1132) of human JAK2 (O60674 808-1132): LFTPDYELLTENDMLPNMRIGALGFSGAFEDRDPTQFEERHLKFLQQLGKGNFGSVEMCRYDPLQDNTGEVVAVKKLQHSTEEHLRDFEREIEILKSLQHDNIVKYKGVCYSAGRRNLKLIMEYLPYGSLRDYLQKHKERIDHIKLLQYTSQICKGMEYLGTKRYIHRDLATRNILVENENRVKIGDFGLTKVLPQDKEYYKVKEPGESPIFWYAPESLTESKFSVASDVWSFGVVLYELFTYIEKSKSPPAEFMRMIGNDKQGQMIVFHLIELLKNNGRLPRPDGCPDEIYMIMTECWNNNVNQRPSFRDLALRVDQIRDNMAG
Sequence of pseudo-kinase domain (JH2) of human V617F mutant JAK2 (O60674 536-812 V617F/W659A/W777A/F794H): as the sequence (O60674 536-812 W659A/W777A/F794H) above, with V82F counted along it

| SMILES | pIC50 [1] | pIC50 [2] | pIC50 [3] | pIC50 [4] |
| --- | --- | --- | --- | --- |
| COc1c(Nc2cc(NC(=O)C3CC3)nc3cc[nH]c(=O)c23)cccc1N1CCN(S(=O)(=O)C2CC2)CC1 [Example 4, N-(4-((3-(4-(Cyclopropylsulfonyl)piperazin-1-yl)-2-methoxyphenyl)amino)-5-oxo-5,6-dihydro-1,6-naphthyridin-2-yl)cyclopropanecarboxamide Trifluoroacetic Acid Salt] | 5.00 to 6.00 | 6.30 to 7.00 | 6.30 to 7.00 | < 5.00 |
| O=C(Nc1cc(Nc2cccc(-c3cnn(C4CCOCC4)c3)c2)c2c(=O)[nH]ccc2n1)C1CC1 [Example 6, N-(5-oxo-4-((3-(1-(tetrahydro-2H-pyran-4-yl)-1H-pyrazol-4-yl)phenyl)amino)-5,6-dihydro-1,6-naphthyridin-2-yl)cyclopropanecarboxamide Trifluoroacetic Acid Salt] | 5.00 to 6.00 | < 5.00 | < 5.00 | 5.00 to 6.00 |
| COc1c(Nc2cc(NC(=O)C3CC3)nc3cc[nH]c(=O)c23)cccc1C(=O)NCC1CCOCC1 [Example 11, 3-((2-(Cyclopropanecarboxamido)-5-oxo-5,6-dihydro-1,6-naphthyridin-4-yl)amino)-2-methoxy-N-((tetrahydro-2H-pyran-4-yl)methyl)benzamide Trifluoroacetic Acid Salt] | < 5.00 | 5.00 to 6.00 | 5.00 to 6.00 | < 5.00 |
| O=C(Nc1cc(Nc2ccccc2CO)c2c(=O)[nH]ccc2n1)C1CC1 [Example 23, N-(4-((2-(Hydroxymethyl)phenyl)amino)-5-oxo-5,6-dihydro-1,6-naphthyridin-2-yl)cyclopropanecarboxamide Trifluoroacetic Acid Salt] | 5.00 to 6.00 | 5.00 to 6.00 | < 5.00 | 5.00 to 6.00 |
| COc1cc(-c2cnn(C3CCOCC3)c2)ccc1Nc1cc(NC(=O)C2CC2)nc2cc[nH]c(=O)c12 [Example 7, N-(4-((2-Methoxy-4-(1-(tetrahydro-2H-pyran-4-yl)-1H-pyrazol-4-yl)phenyl)amino)-5-oxo-5,6-dihydro-1,6-naphthyridin-2-yl)cyclopropanecarboxamide Trifluoroacetic Acid Salt] | 5.00 to 6.00 | 5.00 to 6.00 | < 5.00 | 5.00 to 6.00 |
| COc1ccccc1Nc1cc(NC(=O)C2CC2)nc2cc[nH]c(=O)c12 [Example 21, N-(4-((2-Methoxyphenyl)amino)-5-oxo-5,6-dihydro-1,6-naphthyridin-2-yl)cyclopropanecarboxamide] | 5.00 to 6.00 | 5.00 to 6.00 | < 5.00 | 5.00 to 6.00 |
| COc1c(Nc2cc(NC(=O)C3CC3)nc3cc[nH]c(=O)c23)cccc1-c1cn[nH]c1 [Example 1, N-(4-((2-Methoxy-3-(1H-pyrazol-4-yl)phenyl)amino)-5-oxo-5,6-dihydro-1,6-naphthyridin-2-yl)cyclopropanecarboxamide] | 5.00 to 6.00 | ≥ 7.00 | 6.30 to 7.00 | 5.00 to 6.00 |
| Cc1[nH]ncc1-c1c(Cl)cccc1Nc1cc(NC(=O)C2CC2)nc2cc[nH]c(=O)c12 [Example 17, N-(4-((3-Chloro-2-(5-methyl-1H-pyrazol-4-yl)phenyl)amino)-5-oxo-5,6-dihydro-1,6-naphthyridin-2-yl)cyclopropanecarboxamide Trifluoroacetic Acid Salt] | 5.00 to 6.00 | 6.00 to 6.30 | 5.00 to 6.00 | 5.00 to 6.00 |
| Cc1[nH]ncc1-c1c(Nc2cc(NC(=O)C3CC3)nc3cc[nH]c(=O)c23)cccc1C(F)(F)F [Example 19, N-(4-((2-(5-Methyl-1H-pyrazol-4-yl)-3-(trifluoromethyl)phenyl)amino)-5-oxo-5,6-dihydro-1,6-naphthyridin-2-yl)cyclopropanecarboxamide Trifluoroacetic Acid Salt] | < 5.00 | 5.00 to 6.00 | 5.00 to 6.00 | < 5.00 |
| CNc1ccccc1Nc1cc(NC(=O)C2CC2)nc2cc[nH]c(=O)c12 [Example 22, N-(4-((2-(Methylamino)phenyl)amino)-5-oxo-5,6-dihydro-1,6-naphthyridin-2-yl)cyclopropanecarboxamide Trifluoroacetic Acid Salt] | < 5.00 | < 5.00 | < 5.00 | < 5.00 |
| CSc1c(Nc2cc(NC(=O)C3CC3)nc3cc[nH]c(=O)c23)cccc1-c1cnn(C2CCOCC2)c1 [Example 12, N-(4-((2-(Methylthio)-3-(1-(tetrahydro-2H-pyran-4-yl)-1H-pyrazol-4-yl)phenyl)amino)-5-oxo-5,6-dihydro-1,6-naphthyridin-2-yl)cyclopropanecarboxamide Trifluoroacetic Acid Salt] | < 5.00 | 6.00 to 6.30 | 6.00 to 6.30 | < 5.00 |
| COc1c(Nc2cc(NC(=O)C3CC3)nc3cc[nH]c(=O)c23)cccc1-c1cnn(C2CCCC2)c1 [Example 3, N-(4-((3-(1-Cyclopentyl-1H-pyrazol-4-yl)-2-methoxyphenyl)amino)-5-oxo-5,6-dihydro-1,6-naphthyridin-2-yl)cyclopropanecarboxamide Trifluoroacetic Acid Salt] | < 5.00 | 6.30 to 7.00 | 6.30 to 7.00 | < 5.00 |
| COc1c(Nc2cc(NC(=O)C3CC3)nc3cc[nH]c(=O)c23)cccc1-c1cnc(C2CCOCC2)s1 [Example 2, N-(4-((2-Methoxy-3-(2-(tetrahydro-2H-pyran-4-yl)thiazol-5-yl)phenyl)amino)-5-oxo-5,6-dihydro-1,6-naphthyridin-2-yl)cyclopropanecarboxamide Trifluoroacetic Acid Salt] | < 5.00 | ≥ 7.00 | ≥ 7.00 | < 5.00 |
| O=C(Nc1cc(Nc2cccc(C(F)(F)F)c2-c2cn[nH]c2)c2c(=O)[nH]ccc2n1)C1CC1 [Example 18, N-(4-((2-(1H-pyrazol-4-yl)-3-(trifluoromethyl)phenyl)amino)-5-oxo-5,6-dihydro-1,6-naphthyridin-2-yl)cyclopropanecarboxamide Trifluoroacetic Acid Salt] | < 5.00 | 6.00 to 6.30 | 6.00 to 6.30 | < 5.00 |
| CCn1ccc2cccc(Nc3cc(NC(=O)C4CC4)nc4cc[nH]c(=O)c34)c21 [Example 9, N-(4-((1-Ethyl-1H-indol-7-yl)amino)-5-oxo-5,6-dihydro-1,6-naphthyridin-2-yl)cyclopropanecarboxamide Trifluoroacetic Acid Salt] | < 5.00 | 5.00 to 6.00 | 5.00 to 6.00 | < 5.00 |

— patent US11691971B2, “Naphthyridinone compounds as JAK2 V617F inhibitors” (Incyte Corporation, priority 2020, dated 2023)
